The subject of data set [1] is tadpole. Kind of data set: Anesthetic potency obtained by use of a tadpole. The settings on record: Table 6; potency converted to gaseous system; partial pressure ratio, methanol as 1.00. The data set is classed as in vivo.
In data set [2] the test system is tadpole. The conditions noted are these: cited from earlier work.
The subject of data set [3] is tadpole. Kind of data set: Anesthetic potency obtained by use of a tadpole. The conditions noted are these: in vivo. The text has this: In Table 3, potency is a value representing intensity of the anesthetics and is shown as values obtained by use of a tadpole.
For data set [4] the following is noted: gas phase.
Source text: At point B in FIG. 9, the coated crystal oscillator or crystal is removed from the cell into atmosphere with the result that the frequency reverts soon to the same as at point A in FIG. 9, at which the coated crystal oscillator or crystal is placed in the cell. […] In the determination of adsorbed amounts from frequency changes thus obtained, the adsorbed amount is represented in terms of partition coefficient obtained by dividing the adsorbed amount by the total weight of the odorous substance molecules actually existing in the gas phase in order to cancel differences in vapor pressure in the gas phase.
The conditions of data set [5]: for Adsorbed amounts / Frequency Changes -ΔF: Example 9, 2C18 N^+ 2C1 /PSS^-, halothane 9.48×10^-4 M aqueous.
Procedure: In FIG. 6, the immobilized bilayer film is cast on a silver-deposited electrode 2 of the crystal oscillator 1 [or on both sides of a silver-electrode-deposited piezoelectric crystal (9 MHz; AT-cut)] and dipped into deionized water in cell 3, bitter or odorous substances are injected thereinto as a solution thereof through an irritant-injecting device 4, frequency changes after the injection are measured by a frequency measuring means (not shown) constituting the crystal oscillator 1, and adsorbed amounts of bitter or odorous substances onto the immobilized bilayer film are determined from proportionality thereof to the frequency changes thus obtained.
The partition coefficient means a ratio of the adsorbed amount of an irritant such as the bitter or odorous substance or the like onto the immobilized bilayer film to an amount by weight of the irritant such as the bitter or odorous substance or the like in the aqueous solution of a constant volume.
Since frequency changes of 10 Hz or less are considered to be within errors in measurements, the concentration at the frequency change of 10 Hz is defined as a concentration threshold value.
The nature of data set [6]: Adsorption from aqueous phase on polystyrene film.
Data set [7] in a line: Adsorption from aqueous phase on poly(methyl-L-glutamate) film.
Data set [8] in a line: Adsorption from aqueous phase on polyvinyl alcohol film.
Data set [9] is described as follows: Adsorption from aqueous phase on uncoated crystal oscillator.
For data set [10] the following is noted: Example 11; CTAB^+ /PSS^-; halothane 9.48×10^-4 M.
For data set [11] the following is noted: Example 10; Cholesterylammonium poly(p-styrenesulfonate); halothane 9.48×10^-4 M.
For data set [12] the following is noted: Comparative Example 6; Polyvinyl chloride, 45° C.; halothane 9.48×10^-4 M.
Where [13] appears, read: Table 3, tadpole, intensity of the anesthetic.
Where [14] appears, read: Table 6, concentration ratio of aqueous solution, methanol as 1.00.
Setting [15] is: Comparative Example 5, Polystyrene, 45° C., halothane 9.48×10^-4 M.
Where [16] appears, read: Comparative Example 8, PMLG, halothane 9.48×10^-4 M.
Setting [17] is: Comparative Example 7, Polyvinyl alcohol, 45° C., halothane 9.48×10^-4 M.

Molecules are shown by their SMILES. Read-outs that look alike come from different tables or passages of the source.

Consider `CCOCC` [diethyl ether], for which, in the data set on tadpole [1], the Potency atm amounted to 6.43.
For the compound `CCCCCCCCCO` [1-nonanol], the Potency in the data set on tadpole [2] (setting [13]) was 4.03 × 10^4. For the same compound, the Potency atm in the data set on tadpole [3] is 2.51 × 10^8.
Take `CC1OC(C)OC(C)O1` (centres unmarked) [paraldehyde]: the Potency atm in the data set with tadpole [3] is reported as 8.20 × 10^2.
Turning to `CCCCCCCCO` [1-octanol], the Potency with tadpole [2] (setting [13]) is on record as 7.93 × 10^3. For the same compound, the Potency atm with tadpole [3] was 1.21 × 10^7.
For the compound `CC(=O)/C=C/C1=C(C)CCCC1(C)C` [β-ionone], in data set [4] (Example 6, FIG. 9), the “frequency change in saturated vapor” value was “the frequency rapidly decreases and then becomes constant soon”. Moreover, the reversibility of adsorption result in data set [5] (45° C., strychnine 58.3 μM, β-ionone 125 μM, FIG. 7, FIG. 8) is listed as “reversible”.
As for `CCO` [ethanol], in the data set with tadpole [1], the Potency atm is listed as 5.19. The Potency in the data set on tadpole [2] (setting [13]) and in the data set on tadpole [2] (setting [14]) was 2.43 in each case.
Consider `CCCCCC` [hexane], for which, in the data set on tadpole [1], the Potency atm is reported as 5.21 × 10^4. Further, in the data set with tadpole [2] (setting [13]), the Potency is 6.75 × 10^4.
With `CCCCCCO` [1-hexanol], the Potency with tadpole [2] (setting [13]) was 1.12 × 10^3.
With `CCCCC` [pentane], the Potency in the data set with tadpole [2] (setting [13]) is 1.51 × 10^4. In addition, in the data set with tadpole [3], the Potency atm is 3.34 × 10^3.
`OCc1ccccc1` [benzylalcohol]: in the data set with tadpole [2] (setting [13]), the Potency was 5.01 × 10^2. Further, in the data set with tadpole [3], the Potency atm was 6.25 × 10^5.
Regarding `CO` [methanol], the Potency in the data set with tadpole [2] (setting [13]) and with tadpole [2] (setting [14]) was 1.00 each time.
Consider `CC(C)=O` [acetone], for which the Potency atm with tadpole [1] was found to be 1.76. Moreover, the Potency in the data set on tadpole [2] (setting [13]) and with tadpole [2] (setting [14]) was 3.47 in each case.
Regarding `ClC(Cl)Cl` [chloroform], the Potency atm in the data set with tadpole [1] is given as 4.62 × 10^2. Further, the Potency in the data set on tadpole [2] (setting [13]) was 7.62 × 10^2.
Regarding `COC(F)(F)C(Cl)Cl` [methoxyflurane], the Potency with tadpole [2] (setting [13]) is on record as 4.86 × 10^3. The Potency atm in the data set with tadpole [3] was 1.82 × 10^4.
As to `CCCCCCCCCCO` [1-decanol], in the data set on tadpole [1], the Potency atm is given as 1.11 × 10^9. Also, the Potency with tadpole [2] (setting [13]) is 1.00 × 10^5.
On to `O=C1C[C@@H]2OCC=C3CN4CC[C@]56c7ccccc7N1[C@H]5[C@H]2[C@H]3C[C@H]46` [Strychnine, strychnine], for which the “frequency changes due to adsorption” value is given as “very little frequency changes” in [6] (Comparative Example 4, polystyrene-coated, regardless of temperature, FIG. 12) and “little or no frequency changes” in data set [9] (Comparative Example 3, uncoated, regardless of temperature, FIG. 12). In addition, the “Partition Coefficient” value in data set [6] (Table 2, coating: Polystyrene film) is reported as 0.05 10^-3; in [7] (Table 2, coating: Polymethyl-L-glutamate film), 0.02 10^-3; in data set [8] (Table 2, coating: Polyvinyl alcohol film) it was 0.03 10^-3; in data set [9] (Table 2, coating: None), 0.03 10^-3.
Take `FC(F)(F)C(Cl)Br` (centres unmarked) [halothane]: the Potency with tadpole [2] (setting [13]) is given as 4.47 × 10^3. Further, the “adsorption amount versus film thickness” value in data set [4] (Example 20, 25° C., 2 μl halothane, FIG. 23) is listed as “linearly increased”. For the same compound, the Adsorbed amounts in [6] (setting [15]) amounted to 74 ng; in data set [10], 249 ng; in data set [7] (setting [16]), 176 ng; in data set [8] (setting [17]) it was 53 ng; in [11], 82 ng; in [12] it was 74 ng. Moreover, the results for the Adsorbed amounts in data set [5] (20° C.) and in data set [5] (45° C.) were 101 ng and 318 ng, respectively. For the same compound, the “Frequency Changes -ΔF” value in data set [6] (setting [15]) worked out at 70 Hz; in data set [10], 237 Hz; in [7] (setting [16]), 168 Hz; in data set [8] (setting [17]), 50 Hz; in data set [11], 78 Hz; in data set [12], 70 Hz. Moreover, the “Frequency Changes -ΔF” value is reported as 96 Hz in [5] (20° C.) and 303 Hz in data set [5] (45° C.). In addition, the Potency atm in the data set with tadpole [3] is recorded as 1.72 × 10^3. Moreover, the “adsorbed amount versus film thickness” value in data set [5] (Example 14, aqueous, 45° C., halothane 3.00×10^-4 M, FIG. 19) is “increased with increased film thickness”.
In the case of `CCCCO` [1-butanol], in the data set with tadpole [1], the Potency atm is listed as 9.41 × 10^2.
